From patent publication US20150315218A1, “SALTS OF PRODRUGS OF PIPERAZINE AND SUBSTITUTED PIPERIDINE ANTIVIRAL AGENTS” (Bristol-Myers Squibb Company, priority 2004, published 2015)
≈ marks a conversion by molar mass, not a printed value. Counter-ions that a name gives are not always drawn. Like-named read-outs stand apart in the source and are kept apart here. Each block holds one molecule with its values, some of them ahead of it.

What was measured:
physchem = conditions: aqueous buffer, thermodynamic from solid
[1] = tested on: HIV-1 T-tropic strain LAI; test: Antiviral assay: HIV-1 LAI infection of MT-2 cells, reverse transcriptase readout (EC50, Table 48); type: cell-based; conditions: Human immunodeficiency virus 1, MT2; read-out: EC50-LAI
From the text: The materials and experimental procedures used to assess the anti-HIV activity of the parent compounds which are generated from the prodrugs in vivo are described below:
• The human T cell line MT-2 and PM1 (AIDS Research and Reference Reagent Program, National Institutes of Health) were maintained and propagated in Medium RPMI-1640 (Invitrogen, Carlsbad, Calif.), containing 10% fetal Bovine serum. (FBS, Sigma, St. Louis, Mo.).
• Laboratory strains of HIV-1—the T-tropic strain LAI was obtained through the AIDS Research and Reference Reagent Program, National Institutes of Health. It was amplified in MT-2 cells and titered using a virus yield assay (2). Detection was achieved through use of a reverse transcriptase assay (3), adapted for use with a Scintillation Proximity detection protocol (1) (Amersham Biosciences, Piscataway, N.J.).
• 1. Compounds stocks were prepared by dissolving in DMSO to 30 mM. For dilution plates, compounds were serially diluted 3-fold into DMSO, using 96-well polypropylene plates, so that the concentrations were 100-fold greater than the final assay concentration. For antiviral and cytotoxicity assays, 2 μl was added per well (1% final DMSO concentration). • 2. Compounds were added from dilution plates to 96 well tissue culture plates, containing 100 μl Medium RPMI-1640, containing 10% fetal bovine serum at a concentration of <20 μM. • 3. For antiviral assays, cells were infected at a multiplicity of infection of 0.005. After 1 h at 37° C., infected cells were diluted to 200,000 cells per ml in Medium RPMI-1640, containing 10% fetal bovine serum. 100 μl of this solution was added per well, giving a final volume of 200 μl. • 4. Plates were incubated at 37° C. in a humidified CO2 incubator and harvested after 5 days. • 5. Viral infections were monitored by measuring reverse transcriptase activity in the supernatants of infected wells as described above. The percent inhibition for each compound was calculated by quantifying the readout level in cells infected in the presence of each compound as a percentage of that observed for cells infected in the absence of compound and subtracting such a determined value from 100. • 6. An EC50 provides a method for comparing the antiviral potency of the compounds of this invention. The effective concentration for fifty percent inhibition (EC50) was calculated with the Microsoft Excel Xlfit curve fitting software. For each compound, curves were generated from percent inhibition calculated at 8 different concentrations by using a four paramenter logistic model (model 205).

[2] = molecular target: T1, human placental alkaline phosphatase (ALP) (Homo sapiens, UniProt P05187); test: Hydrolysis of prodrug in human placental ALP solutions; type: in vitro ADME; conditions: human placental ALP solution, 37°C, 120 min, read-out: t1/2 (min) of prodrug disappearance
T1 construct: To study the hydrolysis of lab in a purified form of human ALP, Iab was incubated in human placental ALP solutions; host or cells: human placenta (inferred from the name and from 'ALP derived from humans')
Experimental: (§1) Solid human placental ALP was obtained from Sigma (P-3895, St. Louis, Mo.). […] Solutions of 100 and 10 units/L were obtained by serial dilution. Iab was incubated in the 10, 100 and 1000 units/L solutions (n=2) at 37° C. for 2 hr. The starting concentration of Iab in the incubation was 10 μM. Aliquots of 100 μL samples were taken at pre-determined times and added into K2EDTA microtainers followed by the addition of 200 μL of acetonitrile.
as §1, with “Ibb” for “Iab”
as §1, with “Icb” for “Iab”, “acetonitrile. The supernatant was analyzed for both Icb and IVe by LC/MS/MS.” for “acetonitrile.”

human hepatocytes = test: Hydrolysis of prodrug in hepatocytes (human); type: in vitro ADME
Experimental: The in vitro intrinsic clearance of Ibb in hepatocytes (Clint) was calculated as follows: Clint(μL/min/million cells)=Rate/CE where Rate is the rate of metabolism in hepatocytes (pmol/min/million cells), and CE is the concentration of Ibb in the incubation. The in vitro intrinsic clearance of Icb in hepatocytes (Clint) was calculated as follows: Clint(μL/min/million cells)=Rate/CE where Rate is the rate of metabolism in hepatocytes (pmol/min/million cells), and CE is the concentration of Icb in the incubation.

[3] = Stability of prodrug in fresh EDTA blood (dog); conditions: for Ibb: Ibb in fresh dog EDTA blood, 37° C., n = 2
[4] = Stability (hydrolysis) of prodrug in fresh serum (rat); conditions: for Ibb: Ibb in fresh rat serum, 37° C., n = 2; for Iab / IVa Formed: Rat Serum
[5] = Stability of prodrug in fresh EDTA blood (human); conditions: for Ibb: Ibb in fresh human EDTA blood, 37° C., n = 2; for % IVa Formed (of starting concentration of Iab) / Iab / IVa Formed: Human EDTA blood
[6] = Aqueous / crystalline solubility; conditions: aqueous solution
[7] = pH 7.5, ALP Activity 10 Units/L
[8] = pH 7.5, ALP Activity 100 Units/L
[9] = pH 7.5, ALP Activity 1000 Units/L

T1 sequence (P05187 23-506 limits assumed): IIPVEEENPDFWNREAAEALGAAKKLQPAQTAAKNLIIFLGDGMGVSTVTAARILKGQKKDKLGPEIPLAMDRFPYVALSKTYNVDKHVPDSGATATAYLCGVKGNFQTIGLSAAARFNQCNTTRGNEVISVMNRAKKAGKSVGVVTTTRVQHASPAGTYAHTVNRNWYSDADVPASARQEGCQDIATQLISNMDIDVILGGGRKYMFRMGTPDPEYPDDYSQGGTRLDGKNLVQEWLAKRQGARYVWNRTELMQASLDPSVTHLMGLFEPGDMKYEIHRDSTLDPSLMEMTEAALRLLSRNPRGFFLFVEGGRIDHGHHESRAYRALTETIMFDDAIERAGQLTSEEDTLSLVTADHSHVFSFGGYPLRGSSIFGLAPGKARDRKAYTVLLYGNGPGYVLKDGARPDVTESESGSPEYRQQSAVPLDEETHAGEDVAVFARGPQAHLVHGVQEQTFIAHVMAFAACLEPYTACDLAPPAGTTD

Compound: COc1cnc(-n2cnc(C)n2)c2c1c(C(=O)C(=O)N1CCN(C(=O)c3ccccc3)CC1)cn2COP(=O)(O)O [Icb, [3-[(4-benzoylpiperazin-1-yl)(oxo)acetyl]-4-methoxy-7-(3-methyl-1H-1,2,4-triazol-1-yl)-1H-pyrrolo[2,3-c]pyridin-1-yl]methyl dihydrogen phosphate, 2-amino-2-(hydroxymethyl)propane-1,3-diol salt (1:1)]
half-life at 10 μM [2, 7]: 250 min
half-life at 10 μM [2, 8]: 29 min
half-life at 10 μM [2, 9]: 2.4 min
hydrolysis in the presence of hepatocytes (human hepatocytes): hydrolyzed

Compound: O=C(C(=O)N1CCN(C(=O)c2ccccc2)CC1)c1cn(COP(=O)(O)O)c2c(-n3ccnn3)ncc(F)c12 [Ibb, [3-[(4-benzoylpiperazin-1-yl)(oxo)acetyl]-4-fluoro-7-(1H-1,2,3-triazol-1-yl)-1H-pyrrolo[2,3-c]pyridin-1-yl]methyl dihydrogen phosphate, L-lysine salt (1:1)]
Ibb ([3]; 0 min): 13 µM
Ibb ([3]; 15 min): 12 µM
Ibb ([3]; 30 min): 15 µM
Ibb ([3]; 45 min): 16 µM
Ibb ([3]; 60 min): 13 µM
Ibb ([3]; 90 min): 16 µM
conversion of prodrug to parent in blood containing EDTA ([3]; dog blood, 37°C, 60 min (Iab) or 90 min (Ibb, Icb)): < 2%
solubility (physchem; aqueous solution (pH range 1.5 to 8.7)): > 11000 µg/mL
Ibb ([4]; 0 min): 12 µM
Ibb ([4]; 15 min): 9.4 µM
Ibb ([4]; 30 min): 9.2 µM
Ibb ([4]; 45 min): 9.4 µM
Ibb ([4]; 60 min): 9.3 µM
Ibb ([4]; 90 min): 9.0 µM
half-life at 10 μM [2, 7]: 198 min
half-life at 10 μM [2, 8]: 16 min
half-life at 10 μM [2, 9]: 2 min
hydrolysis in the presence of hepatocytes (human hepatocytes; human hepatocytes, qualitative): hydrolyzed
Ibb ([5]; 0 min): 16 µM
Ibb ([5]; 15 min): 15 µM
Ibb ([5]; 30 min): 16 µM
Ibb ([5]; 45 min): 16 µM
Ibb ([5]; 60 min): 16 µM
Ibb ([5]; 90 min): 18 µM
conversion of prodrug to parent in blood containing EDTA ([5]; human blood, 37°C, 60 min (Iab) or 90 min (Ibb, Icb)): < 2%
concentration of aqueous solutions prepared for in vivo toxicology studies [6]: > 75 mg/mL

Compound: COc1ncc(OC)c2c(C(=O)C(=O)N3CCN(C(=O)c4ccccc4)CC3)c[nH]c12 [IVa, N-(benzoyl)-N′-[(4,7-dimethoxy-6-azaindol-3-yl)-oxoacetyl]piperazine]
% IVa Formed (of starting concentration of Iab) ([3]; Dog A EDTA blood (Table 15), 0 min): 0.30%
% IVa Formed (of starting concentration of Iab) ([3]; Dog A EDTA blood (Table 15), 20 min): 2.4%
% IVa Formed (of starting concentration of Iab) ([3]; Dog A EDTA blood (Table 15), 40 min): 4.1%
% IVa Formed (of starting concentration of Iab) ([3]; Dog A EDTA blood (Table 15), 60 min): 6.2%
% IVa Formed (of starting concentration of Iab) ([3]; Dog A EDTA blood (repeat), 0 min): 0.63%
% IVa Formed (of starting concentration of Iab) ([3]; Dog A EDTA blood (repeat), 15 min): 2.3%
% IVa Formed (of starting concentration of Iab) ([3]; Dog A EDTA blood (repeat), 30 min): 3.4%
% IVa Formed (of starting concentration of Iab) ([3]; Dog A EDTA blood (repeat), 45 min): 4.8%
% IVa Formed (of starting concentration of Iab) ([3]; Dog A EDTA blood (repeat), 60 min): 6.1%
% IVa Formed (of starting concentration of Iab) ([3]; Dog B EDTA blood, 0 min): 0.68%
% IVa Formed (of starting concentration of Iab) ([3]; Dog B EDTA blood, 15 min): 2.0%
% IVa Formed (of starting concentration of Iab) ([3]; Dog B EDTA blood, 30 min): 3.5%
% IVa Formed (of starting concentration of Iab) ([3]; Dog B EDTA blood, 45 min): 4.5%
% IVa Formed (of starting concentration of Iab) ([3]; Dog B EDTA blood, 60 min): 5.8%
solubility (physchem; aqueous): 40 to 900 µg/mL (≈ 94.7 to 2130 µM)
Iab / IVa Formed ([4]; 37°C, 0 min): 0.25 µM
Iab / IVa Formed ([4]; 15 min): 1.1 µM
Iab / IVa Formed ([4]; 30 min): 1.8 µM
Iab / IVa Formed ([4]; 45 min): 2.8 µM
Iab / IVa Formed ([4]; 60 min): 3.7 µM
Iab / IVa Formed ([4]; 90 min): 5.4 µM
EC50 [1]: < 1000 nM
% IVa Formed (of starting concentration of Iab) ([5]; 0 min): 0.55%
Iab / IVa Formed ([5]; 0 min): 0.061 µM
% IVa Formed (of starting concentration of Iab) ([5]; 15 min): 0.59%
Iab / IVa Formed ([5]; 15 min): 0.067 µM
% IVa Formed (of starting concentration of Iab) ([5]; 30 min): 0.50%
Iab / IVa Formed ([5]; 30 min): 0.057 µM
% IVa Formed (of starting concentration of Iab) ([5]; 45 min): 0.65%
Iab / IVa Formed ([5]; 45 min): 0.073 µM
% IVa Formed (of starting concentration of Iab) ([5]; 60 min): 0.75%
Iab / IVa Formed ([5]; 60 min): 0.084 µM

Now from value to molecule:

solubility (physchem; aqueous): 7 to 190 µg/mL (≈ 15.6 to 425 µM)
EC50 [1]: < 1000 nM
Compound: O=C(C(=O)N1CCN(C(=O)c2ccccc2)CC1)c1c[nH]c2c(-n3ccnn3)ncc(F)c12 [IVb]

EC50 [1]: < 1000 nM
Compound: COc1cnc(-n2cnc(C)n2)c2[nH]cc(C(=O)C(=O)N3CCN(C(=O)c4ccccc4)CC3)c12 [IVc]
